Test results from PMC12035560, “Structures of Mycobacterium tuberculosis isoprenyl diphosphate synthase Rv2173 in substrate-bound forms” (Acta Crystallographica Section F: Structural Biology …, 2025).

Biological target: T1, Rv2173 (Mycobacterium tuberculosis, UniProt O53507)
T1 construct: gene idsA2
T1 sequence (O53507 whole entry): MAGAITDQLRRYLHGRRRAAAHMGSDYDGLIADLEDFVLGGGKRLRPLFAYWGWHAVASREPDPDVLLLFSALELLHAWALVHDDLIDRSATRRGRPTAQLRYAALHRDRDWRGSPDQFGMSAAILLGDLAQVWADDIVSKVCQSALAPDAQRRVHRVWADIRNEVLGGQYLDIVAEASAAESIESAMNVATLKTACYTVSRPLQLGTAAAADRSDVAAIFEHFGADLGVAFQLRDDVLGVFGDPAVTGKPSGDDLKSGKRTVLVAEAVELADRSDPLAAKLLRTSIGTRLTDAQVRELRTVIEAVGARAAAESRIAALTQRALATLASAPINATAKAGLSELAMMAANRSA

In the case of `CC(C)=CCOP(=O)(O)OP(=O)(O)O` [DMAPP], the “X-ray crystal structure, 2.20 A, co-crystallization” value is reported as “Two metal ions bind to the FARM, coordinating to the DMAPP bound in the allylic/DMAPP site”.
